In the kinase profiling compilation of Christmann-Franck et al. (2016):

Tests used:
Test in all cases: KINOMEscan competition binding
Conditions in all cases: compound 10.0 µM
ZAP70 (human) = ZAP70 (human) (UniProt P43403)
[1] = biological target: TYK2 JH2 pseudokinase (human) (UniProt P29597)
HIPK4 (human) = HIPK4 (human) (UniProt Q8NE63)
RIPK1 (human) = RIPK1 (human) (UniProt Q13546)
[2] = system: KIT (human), P10721 [L576P]
PI4KB (human) = PI4KB (human) (UniProt Q9UBF8)
MARK4 (human) = MARK4 (human) (UniProt Q96L34)
NUAK2 (human) = NUAK2 (human) (UniProt Q9H093)
EPHA1 (human) = EPHA1 (human) (UniProt P21709)
GRK7 (human) = GRK7 (human) (UniProt Q8WTQ7)
MATK (human) = MATK (human) (UniProt P42679)
ERN1 (human) = ERN1 (human) (UniProt O75460)
IKBKB (human) = IKBKB (human) (UniProt O14920)
PAK7 (human) = PAK7 (human) (UniProt Q9P286)
STK17B (human) = STK17B (human) (UniProt O94768)
KIT (human) = KIT (human) (UniProt P10721)
SBK1 (human) = SBK1 (human) (UniProt Q52WX2)
CDC42BPG (human) = CDC42BPG (human) (UniProt Q6DT37)
MAP2K1 (human) = MAP2K1 (human) (UniProt Q02750)
PLK2 (human) = PLK2 (human) (UniProt Q9NYY3)
SYK (human) = SYK (human) (UniProt P43405)
CSNK2A2 (human) = CSNK2A2 (human) (UniProt P19784)
ANKK1 (human) = ANKK1 (human) (UniProt Q8NFD2)
DAPK3 (human) = DAPK3 (human) (UniProt O43293)
EPHA5 (human) = EPHA5 (human) (UniProt P54756)
DCLK1 (human) = DCLK1 (human) (UniProt O15075)
EPHB1 (human) = EPHB1 (human) (UniProt P54762)
MAP3K3 (human) = MAP3K3 (human) (UniProt Q99759)
IRAK3 (human) = IRAK3 (human) (UniProt Q9Y616)
PIK3CG (human) = PIK3CG (human) (UniProt P48736)
DYRK1B (human) = DYRK1B (human) (UniProt Q9Y463)
CAMK4 (human) = CAMK4 (human) (UniProt Q16566)
CDK11B (human) = CDK11B (human) (UniProt P21127)
MAPK8 (human) = MAPK8 (human) (UniProt P45983)
MAP2K7 (human) = MAP2K7 (human) (UniProt O14733)
PIP4K2C (human) = PIP4K2C (human) (UniProt Q8TBX8)
PRKCI (human) = PRKCI (human) (UniProt P41743)
LRRK2 (human) = LRRK2 (human) (UniProt Q5S007)
MTOR (human) = MTOR (human) (UniProt P42345)

Sequence of EPHB1 (human) (P54762 whole entry, looked up): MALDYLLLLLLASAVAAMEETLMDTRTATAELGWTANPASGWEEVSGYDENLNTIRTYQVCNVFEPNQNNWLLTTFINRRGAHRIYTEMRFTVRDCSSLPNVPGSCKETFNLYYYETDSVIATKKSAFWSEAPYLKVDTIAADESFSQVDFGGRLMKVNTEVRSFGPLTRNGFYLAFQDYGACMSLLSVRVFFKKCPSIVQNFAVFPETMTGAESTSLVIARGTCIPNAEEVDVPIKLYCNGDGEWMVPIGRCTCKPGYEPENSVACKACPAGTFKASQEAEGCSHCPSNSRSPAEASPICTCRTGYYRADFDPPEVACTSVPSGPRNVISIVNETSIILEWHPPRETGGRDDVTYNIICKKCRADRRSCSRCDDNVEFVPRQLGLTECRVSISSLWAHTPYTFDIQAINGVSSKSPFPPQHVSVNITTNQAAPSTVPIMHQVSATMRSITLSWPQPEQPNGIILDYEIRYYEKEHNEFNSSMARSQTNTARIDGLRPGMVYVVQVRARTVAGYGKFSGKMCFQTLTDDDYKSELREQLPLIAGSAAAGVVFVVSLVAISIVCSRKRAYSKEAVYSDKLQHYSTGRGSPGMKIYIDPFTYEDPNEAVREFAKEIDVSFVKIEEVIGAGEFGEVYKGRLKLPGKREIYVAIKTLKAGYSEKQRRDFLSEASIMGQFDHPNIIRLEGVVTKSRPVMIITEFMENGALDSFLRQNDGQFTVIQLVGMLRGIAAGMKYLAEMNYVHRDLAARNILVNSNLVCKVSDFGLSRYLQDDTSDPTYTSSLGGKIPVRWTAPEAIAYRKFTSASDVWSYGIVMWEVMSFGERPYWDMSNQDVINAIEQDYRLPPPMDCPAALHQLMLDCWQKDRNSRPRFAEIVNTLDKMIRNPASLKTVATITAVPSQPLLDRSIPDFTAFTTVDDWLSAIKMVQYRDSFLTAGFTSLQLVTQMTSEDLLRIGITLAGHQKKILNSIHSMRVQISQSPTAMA
Sequence of KIT (human) (P10721 whole entry, looked up): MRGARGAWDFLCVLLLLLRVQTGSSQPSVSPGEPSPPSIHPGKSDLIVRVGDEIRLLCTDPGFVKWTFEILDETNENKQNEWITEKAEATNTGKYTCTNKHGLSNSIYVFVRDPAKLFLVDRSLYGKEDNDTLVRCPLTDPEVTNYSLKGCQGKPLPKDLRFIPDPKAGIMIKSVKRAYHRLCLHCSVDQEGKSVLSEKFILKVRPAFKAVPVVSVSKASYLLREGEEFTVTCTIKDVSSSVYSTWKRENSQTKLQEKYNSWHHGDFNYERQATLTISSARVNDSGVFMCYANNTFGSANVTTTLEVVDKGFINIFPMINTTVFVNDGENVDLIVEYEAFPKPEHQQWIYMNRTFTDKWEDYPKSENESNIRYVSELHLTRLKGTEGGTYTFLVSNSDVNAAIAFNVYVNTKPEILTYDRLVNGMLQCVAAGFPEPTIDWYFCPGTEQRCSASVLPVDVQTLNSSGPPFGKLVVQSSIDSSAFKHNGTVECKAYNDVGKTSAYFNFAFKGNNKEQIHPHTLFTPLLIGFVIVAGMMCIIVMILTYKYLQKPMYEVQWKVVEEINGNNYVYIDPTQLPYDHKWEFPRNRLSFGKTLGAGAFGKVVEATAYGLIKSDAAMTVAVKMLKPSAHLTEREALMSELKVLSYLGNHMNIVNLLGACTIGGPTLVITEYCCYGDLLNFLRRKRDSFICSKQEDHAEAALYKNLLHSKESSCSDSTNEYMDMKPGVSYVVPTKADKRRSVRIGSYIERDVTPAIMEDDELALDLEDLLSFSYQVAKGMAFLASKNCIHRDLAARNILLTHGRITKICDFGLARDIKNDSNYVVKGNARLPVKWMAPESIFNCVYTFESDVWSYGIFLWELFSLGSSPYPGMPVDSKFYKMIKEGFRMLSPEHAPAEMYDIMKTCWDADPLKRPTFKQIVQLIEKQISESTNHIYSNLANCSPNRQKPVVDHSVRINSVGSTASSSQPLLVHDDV
Sequence of CAMK4 (human) (Q16566 whole entry, looked up): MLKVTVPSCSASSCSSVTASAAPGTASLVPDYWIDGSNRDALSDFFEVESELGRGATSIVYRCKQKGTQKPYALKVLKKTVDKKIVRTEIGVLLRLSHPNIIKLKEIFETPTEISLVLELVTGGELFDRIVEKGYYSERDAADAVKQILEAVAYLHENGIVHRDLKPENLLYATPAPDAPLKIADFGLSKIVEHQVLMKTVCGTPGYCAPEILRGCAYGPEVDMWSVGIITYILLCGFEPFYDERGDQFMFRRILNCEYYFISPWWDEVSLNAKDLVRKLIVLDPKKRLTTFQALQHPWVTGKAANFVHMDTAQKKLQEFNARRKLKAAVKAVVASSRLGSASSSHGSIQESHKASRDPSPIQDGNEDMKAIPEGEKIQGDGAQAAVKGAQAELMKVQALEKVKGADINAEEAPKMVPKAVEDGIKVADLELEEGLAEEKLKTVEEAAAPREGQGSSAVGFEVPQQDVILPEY
Sequence of CDK11B (human) (P21127 whole entry, looked up): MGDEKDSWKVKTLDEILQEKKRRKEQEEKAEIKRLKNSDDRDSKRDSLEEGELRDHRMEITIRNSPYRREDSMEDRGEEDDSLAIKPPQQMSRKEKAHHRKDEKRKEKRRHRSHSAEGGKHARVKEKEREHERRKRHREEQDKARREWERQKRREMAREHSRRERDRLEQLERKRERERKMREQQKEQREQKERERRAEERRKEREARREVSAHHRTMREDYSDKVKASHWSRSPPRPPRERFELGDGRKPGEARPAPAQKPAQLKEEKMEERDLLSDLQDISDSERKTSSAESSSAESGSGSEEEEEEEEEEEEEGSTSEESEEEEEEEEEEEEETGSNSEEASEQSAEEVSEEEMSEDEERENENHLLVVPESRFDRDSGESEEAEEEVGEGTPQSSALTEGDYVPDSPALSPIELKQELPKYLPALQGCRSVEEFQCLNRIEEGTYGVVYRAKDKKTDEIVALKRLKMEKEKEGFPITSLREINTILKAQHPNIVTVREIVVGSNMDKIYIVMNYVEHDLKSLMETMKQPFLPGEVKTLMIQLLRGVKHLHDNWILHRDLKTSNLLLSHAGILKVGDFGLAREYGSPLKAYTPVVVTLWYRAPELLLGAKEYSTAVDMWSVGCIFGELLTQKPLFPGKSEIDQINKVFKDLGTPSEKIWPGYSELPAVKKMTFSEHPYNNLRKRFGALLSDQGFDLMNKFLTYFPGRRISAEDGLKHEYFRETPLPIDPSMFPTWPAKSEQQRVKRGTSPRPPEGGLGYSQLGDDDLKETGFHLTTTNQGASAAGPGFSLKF
Sequence of CSNK2A2 (human) (P19784 whole entry, looked up): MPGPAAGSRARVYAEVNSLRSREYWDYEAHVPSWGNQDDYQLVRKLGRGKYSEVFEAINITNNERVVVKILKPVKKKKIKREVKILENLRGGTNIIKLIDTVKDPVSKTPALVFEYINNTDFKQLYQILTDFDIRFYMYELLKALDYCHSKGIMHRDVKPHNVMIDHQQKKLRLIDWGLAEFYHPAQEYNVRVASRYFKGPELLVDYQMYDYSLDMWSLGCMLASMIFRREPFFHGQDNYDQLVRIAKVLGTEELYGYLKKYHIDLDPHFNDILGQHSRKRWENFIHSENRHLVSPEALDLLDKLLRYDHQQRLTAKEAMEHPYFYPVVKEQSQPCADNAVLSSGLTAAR
Sequence of TYK2 JH2 pseudokinase (human) (P29597 whole entry, looked up): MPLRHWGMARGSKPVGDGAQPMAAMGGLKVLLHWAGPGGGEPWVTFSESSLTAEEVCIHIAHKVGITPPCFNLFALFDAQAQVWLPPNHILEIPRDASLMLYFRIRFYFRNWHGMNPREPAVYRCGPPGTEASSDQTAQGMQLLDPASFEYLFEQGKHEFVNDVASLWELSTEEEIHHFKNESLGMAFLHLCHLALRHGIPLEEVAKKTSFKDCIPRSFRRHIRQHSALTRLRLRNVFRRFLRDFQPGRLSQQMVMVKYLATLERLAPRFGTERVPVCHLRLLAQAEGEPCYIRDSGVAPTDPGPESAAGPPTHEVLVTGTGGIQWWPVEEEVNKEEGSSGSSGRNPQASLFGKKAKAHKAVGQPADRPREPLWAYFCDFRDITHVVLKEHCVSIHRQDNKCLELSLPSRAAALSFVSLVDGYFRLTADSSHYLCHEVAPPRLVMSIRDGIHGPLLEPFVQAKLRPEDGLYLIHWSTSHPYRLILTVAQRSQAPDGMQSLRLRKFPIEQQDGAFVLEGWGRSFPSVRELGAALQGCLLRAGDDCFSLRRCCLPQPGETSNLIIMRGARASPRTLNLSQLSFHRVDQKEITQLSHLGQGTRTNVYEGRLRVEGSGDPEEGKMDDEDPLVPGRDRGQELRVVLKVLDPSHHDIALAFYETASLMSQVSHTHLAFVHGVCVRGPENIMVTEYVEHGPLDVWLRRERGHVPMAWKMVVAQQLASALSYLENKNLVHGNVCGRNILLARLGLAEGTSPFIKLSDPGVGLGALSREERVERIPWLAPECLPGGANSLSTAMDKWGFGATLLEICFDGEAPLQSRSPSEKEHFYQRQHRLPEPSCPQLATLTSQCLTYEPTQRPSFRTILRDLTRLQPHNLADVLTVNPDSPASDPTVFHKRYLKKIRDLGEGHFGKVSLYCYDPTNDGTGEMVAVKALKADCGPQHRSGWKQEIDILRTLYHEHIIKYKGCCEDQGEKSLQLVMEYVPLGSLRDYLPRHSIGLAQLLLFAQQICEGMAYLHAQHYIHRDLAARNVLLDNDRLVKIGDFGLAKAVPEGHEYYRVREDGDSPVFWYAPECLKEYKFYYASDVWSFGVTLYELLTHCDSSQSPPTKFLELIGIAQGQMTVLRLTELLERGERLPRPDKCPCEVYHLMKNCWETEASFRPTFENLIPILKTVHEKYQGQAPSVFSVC
Sequence of KIT (human), P10721 [L576P] (P10721 whole entry L576P, looked up): as the sequence (P10721 whole entry, looked up) above, with L576P counted along it

Compound	kinase still bound, per cent of control (ZAP70 (human))	kinase still bound, per cent of control [1]	kinase still bound, per cent of control (RIPK1 (human))	kinase still bound, per cent of control (MARK4 (human))	kinase still bound, per cent of control (NUAK2 (human))	kinase still bound, per cent of control (EPHA1 (human))	kinase still bound, per cent of control (IKBKB (human))	kinase still bound, per cent of control (PAK7 (human))	kinase still bound, per cent of control (STK17B (human))	kinase still bound, per cent of control (KIT (human))	kinase still bound, per cent of control (MAP2K1 (human))	kinase still bound, per cent of control (SYK (human))	kinase still bound, per cent of control (CSNK2A2 (human))	kinase still bound, per cent of control (ANKK1 (human))	kinase still bound, per cent of control (DAPK3 (human))	kinase still bound, per cent of control (EPHA5 (human))	kinase still bound, per cent of control (DCLK1 (human))	kinase still bound, per cent of control (EPHB1 (human))	kinase still bound, per cent of control (MAP3K3 (human))	kinase still bound, per cent of control (IRAK3 (human))	also measured
CCN(CC)CCCCNc1ncc2c(n1)N(C)C(=O)N(c1c(Cl)c(OC)cc(OC)c1Cl)C2	100%	100%	100%	100%	100%	100%	100%	100%	100%	6.7%	100%	100%	100%	100%	100%	100%	100%	100%	3.8%	100%	kinase still bound, per cent of control (HIPK4 (human)): 100%; kinase still bound, per cent of control [2]: 2.3%; kinase still bound, per cent of control (PI4KB (human)): 100%; kinase still bound, per cent of control (GRK7 (human)): 100%; kinase still bound, per cent of control (MATK (human)): 100%; kinase still bound, per cent of control (ERN1 (human)): 100%; kinase still bound, per cent of control (SBK1 (human)): 100%; kinase still bound, per cent of control (CDC42BPG (human)): 100%; kinase still bound, per cent of control (PLK2 (human)): 100%; kinase still bound, per cent of control (PIK3CG (human)): 100%; kinase still bound, per cent of control (DYRK1B (human)): 100%; kinase still bound, per cent of control (CAMK4 (human)): 100%; kinase still bound, per cent of control (CDK11B (human)): 100%; kinase still bound, per cent of control (MAPK8 (human)): 100%
CNC(=O)c1cc(Oc2ccc(NC(=O)Nc3ccc(Cl)c(C(F)(F)F)c3)cc2)ccn1	100%	100%	81%	100%	100%	20%	100%	100%	59%	0%	100%	88%	100%	100%	88%	30%	98%	30%	86%	81%	kinase still bound, per cent of control [2]: 0%; kinase still bound, per cent of control (MAP2K7 (human)): 88%; kinase still bound, per cent of control (PIP4K2C (human)): 100%; kinase still bound, per cent of control (GRK7 (human)): 100%; kinase still bound, per cent of control (MATK (human)): 100%; kinase still bound, per cent of control (ERN1 (human)): 74%; kinase still bound, per cent of control (PRKCI (human)): 100%; kinase still bound, per cent of control (SBK1 (human)): 89%; kinase still bound, per cent of control (PLK2 (human)): 71%; kinase still bound, per cent of control (LRRK2 (human)): 77%; kinase still bound, per cent of control (MTOR (human)): 80%; kinase still bound, per cent of control (DYRK1B (human)): 92%; kinase still bound, per cent of control (CAMK4 (human)): 100%; kinase still bound, per cent of control (CDK11B (human)): 98%; kinase still bound, per cent of control (MAPK8 (human)): 100%
CNC(=O)c1ccc(Nc2cc(Nc3ccccc3S(=O)(=O)C(C)C)c3cc[nH]c3n2)nc1	100%	0.95%	100%	4%	0.4%	100%	100%	100%	33%	20%	3%	2.6%	18%	100%	100%	100%	100%	100%	4.8%	15%	kinase still bound, per cent of control (CDC42BPG (human)): 100%; kinase still bound, per cent of control (PIK3CG (human)): 100%; kinase still bound, per cent of control (DYRK1B (human)): 8.8%; kinase still bound, per cent of control (CAMK4 (human)): 100%; kinase still bound, per cent of control (CDK11B (human)): 100%; kinase still bound, per cent of control (MAPK8 (human)): 7.3%
